These results are taken from PubChem BioAssay AID1963984 (Molecular Pharmacology Branch, DTP, NCI, 2024).

The experiment relates to 233499-124-R-J3-PDC spheroids with HUVEC/MSC, viability. The experiment in a line: Anticancer human tumor 233499-124-R-J3-PDC patient-derived colon adenocarcinoma cell line growth inhibition [PI3K]. The note with it: for viability, T/C: stronger effect = lower value. Put shortly:
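Viability of mixed-cell spheroids was determined after exposure to pairwise combinations, one partner being inavolisib, alpelisib, duvelisib or copanlisib. Highest tested concentration matched clinical Cmax where known and 10 microM where not, descending in half-log steps.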

The mark [1] stands for this setting: curve of first compound, second compound 0.0316 µM.
Where [2] appears, read: curve of first compound, second compound 0.1 µM.
[3] abbreviates: curve of first compound, second compound 0.316 µM.
Where [4] appears, read: curve of first compound, second compound 1 µM.
[5] abbreviates: second compound 0.0316 µM, first compound 0.0316 µM.
Setting [6] is: second compound 0.0316 µM, first compound 0.1 µM.
[7] abbreviates: second compound 0.0316 µM, first compound 0.316 µM.
The mark [8] stands for this setting: second compound 0.0316 µM, first compound 1 µM.
Setting [9] is: second compound 0.0316 µM, first compound 3.16 µM.
The mark [10] stands for this setting: second compound 0.0316 µM, first compound 10 µM.
[11] abbreviates: second compound 0.1 µM, first compound 0.0316 µM.
Setting [12] is: second compound 0.1 µM, first compound 0.1 µM.
Where [13] appears, read: second compound 0.1 µM, first compound 0.316 µM.
The mark [14] stands for this setting: second compound 0.1 µM, first compound 1 µM.
The mark [15] stands for this setting: second compound 0.1 µM, first compound 3.16 µM.
Setting [16] is: second compound 0.1 µM, first compound 10 µM.
[17] abbreviates: second compound 0.316 µM, first compound 0.0316 µM.
The mark [18] stands for this setting: second compound 0.316 µM, first compound 0.1 µM.
Where [19] appears, read: second compound 0.316 µM, first compound 0.316 µM.
Where [20] appears, read: second compound 0.316 µM, first compound 1 µM.
Where [21] appears, read: second compound 0.316 µM, first compound 3.16 µM.
Setting [22] is: second compound 0.316 µM, first compound 10 µM.
The mark [23] stands for this setting: second compound 1 µM, first compound 0.0316 µM.
Setting [24] is: second compound 1 µM, first compound 0.1 µM.
The mark [25] stands for this setting: second compound 1 µM, first compound 0.316 µM.
Where [26] appears, read: second compound 1 µM, first compound 1 µM.
The mark [27] stands for this setting: second compound 1 µM, first compound 3.16 µM.
Where [28] appears, read: second compound 1 µM, first compound 10 µM.
Where [29] appears, read: curve of first compound, second compound 0.00316 µM.
Where [30] appears, read: curve of first compound, second compound 0.01 µM.
Setting [31] is: second compound 0.00316 µM, first compound 0.0316 µM.
The mark [32] stands for this setting: second compound 0.00316 µM, first compound 0.1 µM.
[33] abbreviates: second compound 0.00316 µM, first compound 0.316 µM.
Where [34] appears, read: second compound 0.00316 µM, first compound 1 µM.
Setting [35] is: second compound 0.00316 µM, first compound 3.16 µM.
The mark [36] stands for this setting: second compound 0.00316 µM, first compound 10 µM.
Where [37] appears, read: second compound 0.01 µM, first compound 0.0316 µM.
The mark [38] stands for this setting: second compound 0.01 µM, first compound 0.1 µM.
The mark [39] stands for this setting: second compound 0.01 µM, first compound 0.316 µM.
[40] abbreviates: second compound 0.01 µM, first compound 1 µM.
Setting [41] is: second compound 0.01 µM, first compound 3.16 µM.
Setting [42] is: second compound 0.01 µM, first compound 10 µM.

Each structure is given as a SMILES string.
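Further: spheroids exposed to agents for seven days before readout.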
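Wherever viability, T/C is given: percent viability relative to DMSO vehicle control taken as 100%.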

The term IC50 denotes the midpoint of a concentration-inhibition curve. Usually viability, T/C stands for the result in the treated group divided by that in the control group, in per cent. For `C=CC(=O)N1CCN(c2nc(=O)n(-c3c(C)ccnc3C(C)C)c3nc(-c4c(O)cccc4F)c(F)cc23)C(C)C1` (centres undefined) + CC(Nc1ncnc2nc[nH]c12)c1cc2cccc(Cl)c2c(=O)n1-c1ccccc1, the IC50 is over 10 µM under setting [1]; over 10 µM under setting [2]; over 10 µM under setting [3]; over 10 µM under setting [4]; over 10 µM (curve of first compound, second compound 3.16 µM); over 10 µM (curve of first compound, second compound 10 µM). Also, the viability, T/C under setting [5] is 103%; the viability, T/C under setting [6] was 89.2%; the viability, T/C under setting [7] is 81.2%; the viability, T/C under setting [8] is 84.3%; the viability, T/C under setting [9] is 85.8%; the viability, T/C under setting [10] is 91.8%. Moreover, the viability, T/C is, setting by setting: under setting [11], 91%; under setting [12], 87.4%; under setting [13], 92%; under setting [14], 79.8%; under setting [15], 88.1%; under setting [16], 96.8%. The viability, T/C runs as follows: under setting [17], 81.1%; under setting [18], 86.4%; under setting [19], 87.4%; under setting [20], 88.8%; under setting [21], 90%; under setting [22], 82.3%. The viability, T/C under setting [23] was 96.6%; the viability, T/C under setting [24] is 89.4%; the viability, T/C under setting [25] was 87.8%; the viability, T/C under setting [26] is 88.4%; the viability, T/C under setting [27] was 92.9%; the viability, T/C under setting [28] is 93.3%. Moreover, the viability, T/C (second compound 3.16 µM, first compound 0.0316 µM) is 91.3%; the viability, T/C (second compound 3.16 µM, first compound 0.1 µM) was 90.9%; the viability, T/C (second compound 3.16 µM, first compound 0.316 µM) is 78.3%; the viability, T/C (second compound 3.16 µM, first compound 1 µM) is 79.7%; the viability, T/C (second compound 3.16 µM, first compound 3.16 µM) was 71.6%; the viability, T/C (second compound 3.16 µM, first compound 10 µM) was 89%. Also, the viability, T/C (second compound 10 µM, first compound 0.0316 µM) is 80.9%; the viability, T/C (second compound 10 µM, first compound 0.1 µM) was 82.5%; the viability, T/C (second compound 10 µM, first compound 0.316 µM) is 81.8%; the viability, T/C (second compound 10 µM, first compound 1 µM) is 97.3%; the viability, T/C (second compound 10 µM, first compound 3.16 µM) was 69.4%; the viability, T/C (second compound 10 µM, first compound 10 µM) is 88.3%.

For `Cn1nccc1Nc1nccc(-c2ccn(C(CO)c3ccc(Cl)c(F)c3)c(=O)c2)n1` (centres undefined), the viability, T/C is 100% [middle of 4 runs] (compound 0.1 µM) and 71.2% [middle of 4 runs] (compound 10 µM). The IC50 (curve of compound) is over 10 µM.

Take `CC1(C)CCC(Nc2ncc(C(F)(F)F)c(-c3c[nH]c4c(P(C)(C)=O)c(C#N)ccc34)n2)CN1` (centres undefined): the viability, T/C by setting is: (compound 0.0316 µM) 66.7% [middle of 4 runs]; (compound 0.316 µM) 46.9% [middle of 4 runs]; (compound 1 µM) 26.5% [middle of 4 runs]; (compound 3.16 µM) 29.1% [middle of 4 runs]; (compound 10 µM) 5.67% [middle of 4 runs].

As for `CC(C)n1nc(-c2ccc3oc(N)nc3c2)c2c(N)ncnc21`, the viability, T/C (compound 0.001 µM) is 94.8% [middle of 4 runs]; the viability, T/C (compound 0.00316 µM) is 89.4% [middle of 4 runs]; the viability, T/C (compound 0.01 µM) is 85.9% [middle of 4 runs]; the viability, T/C (compound 0.0316 µM) was 82.9% [middle of 4 runs]; the viability, T/C (compound 0.1 µM) was 58.7% [middle of 4 runs]. Further, the IC50 (curve of compound) is over 0.1 µM.

Regarding `C#Cc1c(F)ccc2cc(O)cc(-c3ncc4c(N5CC6CCC(C5)N6)nc(OCC56CCCN5CC(F)C6)nc4c3F)c12` (centres undefined) + CC(Nc1ccc2c(c1)OCCn1cc(N3C(=O)OCC3C(F)F)nc1-2)C(N)=O, the concentration for half-maximal inhibition (IC50) under setting [29] was over 10 µM; the IC50 under setting [30] came out at 2.92 µM; the IC50 under setting [1] was over 10 µM; the IC50 under setting [2] is over 10 µM; the IC50 under setting [3] worked out at 5.35 µM; the IC50 under setting [4] amounted to 0.716 µM. Moreover, the viability, T/C is 83.7% under setting [31]; 76% under setting [32]; 92% under setting [33]; 110% under setting [34]; 95.3% under setting [35]; 85.5% under setting [36]. The viability, T/C under setting [37] is 99.1%; the viability, T/C under setting [38] was 105%; the viability, T/C under setting [39] is 91.4%; the viability, T/C under setting [40] was 98.7%; the viability, T/C under setting [41] was 46.5%; the viability, T/C under setting [42] was 46%. In addition, the viability, T/C was 93.1% under setting [5]; 102% under setting [6]; 85.4% under setting [7]; 85.4% under setting [8]; 95.8% under setting [9]; 77.4% under setting [10]. The viability, T/C is 99.8% under setting [11]; 81% under setting [12]; 83.9% under setting [13]; 60.2% under setting [14]; 70.8% under setting [15]; 49.6% under setting [16]. Moreover, the viability, T/C runs as follows: under setting [17], 77.2%; under setting [18], 78.2%; under setting [19], 63.2%; under setting [20], 75.1%; under setting [21], 59.2%; under setting [22], 38%. Besides, the viability, T/C was 67.8% under setting [23]; 58.6% under setting [24]; 58.6% under setting [25]; 44% under setting [26]; 44.4% under setting [27]; 35.2% under setting [28].

On to `CC(Cn1ccc(-c2ccc(C#N)c(Cl)c2)n1)NC(=O)c1cc(C(C)O)[nH]n1` (centres undefined) + COc1c(OCCCN2CCOCC2)ccc2c3n(c(=NC(=O)c4cnc(N)nc4)nc12)CCN3, for which the IC50 is over 10 µM under setting [29]; over 10 µM under setting [30]; over 10 µM under setting [1]; 5.04 µM under setting [2]; under 0.0316 µM under setting [3]; under 0.0316 µM under setting [4]. The viability, T/C under setting [31] is 92.3%; the viability, T/C under setting [32] is 107%; the viability, T/C under setting [33] was 102%; the viability, T/C under setting [34] is 102%; the viability, T/C under setting [35] is 101%; the viability, T/C under setting [36] was 96.8%. Further, the viability, T/C is, setting by setting: under setting [37], 91.7%; under setting [38], 98.2%; under setting [39], 73.9%; under setting [40], 102%; under setting [41], 98%; under setting [42], 86.5%. The viability, T/C reads like this: under setting [5], 86.6%; under setting [6], 98.5%; under setting [7], 100%; under setting [8], 95.3%; under setting [9], 77.1%; under setting [10], 95.3%. The viability, T/C by setting is: under setting [11], 83.7%; under setting [12], 74.1%; under setting [13], 70.4%; under setting [14], 79%; under setting [15], 55.1%; under setting [16], 42.4%. In addition, the viability, T/C by setting is: under setting [17], 30.9%; under setting [18], 35.2%; under setting [19], 32.5%; under setting [20], 28.4%; under setting [21], 23.6%; under setting [22], 27%. Moreover, the viability, T/C is 14.8% under setting [23]; 12.6% under setting [24]; 7.23% under setting [25]; 8.58% under setting [26]; 5.75% under setting [27]; 5.05% under setting [28].

As to `CC(Cn1ccc(-c2ccc(C#N)c(Cl)c2)n1)NC(=O)c1cc(C(C)O)[nH]n1` (centres undefined), the viability, T/C is, setting by setting: (compound 0.316 µM) 97.2% [middle of 4 runs]; (compound 1 µM) 98.2% [middle of 4 runs]; (compound 3.16 µM) 92.5% [middle of 4 runs]. Also, the IC50 (curve of compound) is over 10 µM.
